According to patent US11802132B2, “Small molecules for inducing selective protein degradation and uses thereof” (DANA-FARBER CANCER INSTITUTE, INC., priority 2018, dated 2023):
“Also recorded” adds a separate entry of the source.

What was measured:
RPN13 and BRD4 = RPN13 and BRD4 (Homo sapiens, UniProt O60885+Q16186); assay: Dimerization assay of RPN13 and BRD4; type: binding; details: indicated concentrations
Description: (§1) A dimerization assay was used to detect the RPN13 and BRD4 dimerization by RAJQ9 (FIG. 40A). […] New compounds were synthesized in the series using the same conditions as RAJQ9 synthesis (See FIG. 26). It was confirmed in the BRD4 assay that the exemplary BRD4 degrader compounds (RAJQ14, RAJQ14-ester) bind to BRD4 (FIG. 44). It was observed that Myc was lost with BRD4 degraders in the MCF7 breast cancer cell line (FIG. 45). For the results shown in FIG. 45, the cells used were MCF7 WT, the exemplary BRD4 degrader compound was RAJQ14 (at 3 μM concentration), and the time points shown in the assay were 2 hours, 6 hours, 16 hours, and 24 hours. […] For the results shown in FIG. 46, the cells used were MCF7 WT, the drug was the exemplary FKBP12 degrader RAFKBP4 (at 3 μM concentration), and the time points shown in the assay were 2 hours, 6 hours, 16 hours, and 24 hours.

FKBP12 = molecular target: T1, FKBP12 (Homo sapiens, UniProt P62942); assay: FKBP12 degradation in MCF7 breast cancer cell line; type: cell-based; details: MCF7 WT; 3 μM; 2, 6, 16 and 24 hours
T1 construct: the cells used were MCF7 WT; endogenous in cells; host or cells: MCF7 WT
Description: as §1

Sequence of RPN13 and BRD4 (Q16186 whole entry, other chains not shown): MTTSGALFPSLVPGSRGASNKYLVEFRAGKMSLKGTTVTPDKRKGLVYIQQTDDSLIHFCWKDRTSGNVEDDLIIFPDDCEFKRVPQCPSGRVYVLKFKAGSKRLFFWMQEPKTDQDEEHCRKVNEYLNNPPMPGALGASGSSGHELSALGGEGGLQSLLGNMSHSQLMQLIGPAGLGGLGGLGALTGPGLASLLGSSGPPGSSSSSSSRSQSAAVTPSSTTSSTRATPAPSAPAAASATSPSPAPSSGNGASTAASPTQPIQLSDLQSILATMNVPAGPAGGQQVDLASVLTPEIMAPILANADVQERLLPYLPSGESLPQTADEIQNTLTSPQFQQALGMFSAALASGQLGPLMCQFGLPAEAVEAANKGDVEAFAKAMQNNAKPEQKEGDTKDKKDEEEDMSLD
T1 sequence (P62942 whole entry): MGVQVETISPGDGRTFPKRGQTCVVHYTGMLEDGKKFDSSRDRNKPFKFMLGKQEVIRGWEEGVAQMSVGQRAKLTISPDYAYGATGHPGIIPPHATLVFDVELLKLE

| Structure (SMILES) | RPN13 and BRD4 dimerization (RPN13 and BRD4) | FKBP12 degradation in MCF7 cells (FKBP12) |
| --- | --- | --- |
| Cc1sc2c(c1C)C(c1ccc(Cl)cc1)=N[C@@H](CC(=O)NCCN1CCN(CCCCCCOc3ccc(C[C@H](N)C(=O)N4C/C(=C\c5ccc(Cl)c(Cl)c5)C(=O)/C(=C/c5ccc(Cl)c(Cl)c5)C4)cc3)CC1)c1nnc(C)n1-2 [RAJQ9] | can bring these two proteins (RPN13 and BRD4) together; also recorded: can dimerize these two proteins together | – |
| CC[C@H](C(=O)N1CCCC[C@H]1C(=O)OC(CCc1ccc(OC)c(OC)c1)c1cccc(OCC(=O)NCCOCCOCCOCCC(=O)NCCOCCN[C@@H](Cc2ccccc2)C(=O)N2C/C(=C\c3ccc(Cl)c(Cl)c3)C(=O)/C(=C/c3ccc(Cl)c(Cl)c3)C2)c1)c1cc(OC)c(OC)c(OC)c1 (some centres unmarked) [RAFKBP4] | – | FKBP12 degradation |
